Values quoted from earlier work as cited in US9090623B2, “Compound JK12A and preparation thereof” (LIANYUNGANG JINKANG HEXIN PHARMACEUTICAL CO., LTD., priority 2012, dated 2015).

Test system: HeLa S3 cells
Settings: reported in Org. Lett. 2008, 10, 489-491; cited from earlier work

## COC(=O)c1ccc(N2CC3CNC(=O)C2(C(=O)OC)N3C)cc1 (stereo not shown) [Aplaminal]
  cytotoxicity against HeLa S3 cells IC50: 0.51 µg/mL
